Reference: patent US7550476B2, “Condensed polycyclic compounds” (Mitsubishi Tanabe Pharma Corporation, priority 2001, dated 2009)

Tested on: not given
Experiment: not given
Settings: not given

SMILES	melting point
COc1cc2c(cc1OC)C(c1ccccc1)N1CCN(Cc3ccccc3)CC1C2.Cl.Cl (centres unmarked)	198 to 203 °C (dec.)
COc1cc2c(cc1OC)C(c1ccccc1)N1CCN(CSC)CC1C2.Cl.Cl (centres unmarked)	217 to 220 °C (dec.)
COc1cc2c(cc1OC)C(c1ccccc1)N1CCN(CC(=O)O)CC1C2.Cl.Cl (centres unmarked)	214 to 217 °C (dec.)
COc1cc2c(cc1OC)C(c1ccccc1)N1CCN(C(=O)c3ccccc3)CC1C2.Cl (centres unmarked)	229 to 233 °C (dec.)
COc1cc2cc(COC(C)=O)c(COC(C)=O)c(-c3ccnc(C4C(=O)CCCC4=O)c3)c2cc1OC	210 to 213 °C
COc1cc2cc(CO)c(CO)c(-c3ccnc(C4C(=O)CCCC4=O)c3)c2cc1OC	> 220 °C
COc1cc2c(cc1OC)C(c1ccc(OC(C)C)cc1)N1CCNCC1C2.Cl.Cl (centres unmarked)	180 to 185 °C (dec.)

Tested on: mouse (BDF1 strain, male)
Experiment: Single-dose subcutaneous toxicity in mouse
Assay type: in vivo
Settings: single dose 100 mg/kg subcutaneously, n=3, checked for 1 day
Experimental: Further, the compounds [I] and compounds [I-C] of the present invention have the merit of being less toxic, and highly safe as a medicine. For example, 8,9-dimethoxy-6-phenyl-1,3,4,6,11,11a-hexahydro-2H-pyrazino[1,2-b]-isoquinoline was subcutaneously administered to a mouse (BDF1 strain, male, n=3) in a single dose (100 mg/kg) and the progress was checked for 1 day.

SMILES	death
COc1cc2c(cc1OC)C(c1ccccc1)N1CCNCC1C2 (centres unmarked) [Compound A, 8,9-dimethoxy-6-phenyl-1,3,4,6,11,11a-hexahydro-2H-pyrazino[1,2-b]isoquinoline]	no death was observed
